Data: publication PMC6744417, “ALKBH overexpression in head and neck cancer: potential target for novel anticancer therapy” (Scientific Reports, 2019)
Read-outs that look alike come from different tables or passages of the source.

Key:
U87 cells [1] = test: Alamar Blue viability assay, U87; format: cell-based, human; settings: 48 h of treatment
Experimental: (§1) Exponentially growing cells at the density of 3 × 10^3 cells/well were seeded onto a 96-well plate, cultured for 18 h followed by the respective treatment of antraquinones or its derivatives in various concentrations or 34 nM RNA interference of ALKBH proteins, and then cultured for a an additional 48 h. Alamar Blue (Invitrogen) viability assay was performed according to manufacturer’s protocol: after 4 h incubation, emission at 590 nm was measured with excitation at 560 nm using a scanning multiwall multimode spectrophotometer (DTX 880, Beckman Coulter). The experiment was carried out at least three times, with three replicates for each inhibitor concentration. After background subtraction, inhibition rates, IC50, values were calculated as the concentration of the component that inhibits cell growth by 50%. All the calculations were done using Origin 9.0 software.

EUFA30 cells [2] = test: Alamar Blue viability assay, EUFA30; format: cell-based, human; settings: normal fibroblast cells, 48 h of treatment
Experimental: as §1

HeLa cells [3] = test: Flow cytometry Annexin V-FITC / propidium iodide, HeLa; format: cell-based, human; settings: 48 h, untreated control 10.8%
Experimental: (§2) Silencing was performed using the lipofectamine RNAiMAX reagent (Invitrogen) and ready-to-use siRNA mixture (Santa Cruz Biotechnology) composed of at least two different siRNAs targeting the same gene, to knock down ALKBH1, 2, 3, 4, 5, 8, and FTO (Supplementary Table 2). 1 × 10^6 cells were seeded onto a 100 mm diameter dishes. After 24 h of incubation, siRNAs mixtures (with lipofectamine, in OPTI-MEM medium) were added. After 48 h, cells were collected for WB or flow cytometry analysis. For WB analysis, adherent cells were rinsed three times with PBS, scraped, and centrifuged (800 x g, 10 min, 4 °C). Next, cells were re-suspended in 100 μL RIPA buffer with a 1 x mammalian protease inhibitor cocktail (Sigma-Aldrich). The resulting lysates were spun down at 30 130 x g to remove insoluble particles, assayed for protein content using the Bradford assay, and loaded onto the SDS-PAGE at the protein amount of 20 μg per line. The strength of WB signals corresponding to the particular ALKBHs were calculated by densitometry. The expression changes by 30% were considered as significant.
(§3) The Annexin V-FITC apoptosis detection kit (ApoAlert Annexin V-FITC Apoptosis Kit, TaKaRa) was used to detect apoptosis by flow cytometry. Cells were seeded at 6-well plates at concentration of 5 × 10^5 cells/well, cultured for 18 h, and then the tested agent was applied for the indicated periods. Afterward, cells were washed with PBS, resuspended in binding buffer, and anti-Annexin V FITC-conjugated antibody and propidium iodide were added to 100 µl aliquots. The mixtures were incubated for 15 min at room temperature, supplemented with binding buffer to 500 µl, and processed using BD FACSCalibur (BD Biosciences). Data were analyzed in Flowing Software version 2.5.1 (Flowing Software, http://www.uskonaskel.fi/flowingsoftware).

FTO [4] = target: T1, FTO (Homo sapiens, UniProt Q9C0B1); test: FTO N6meA demethylation Chemiluminescent Assay Kit; format: biochemical; settings: FTO 330 nM; N6meA on RNA; read-out: IC50 (Enzyme: FTO 330nM; Substrate: N6meA)
T1 construct: His; made in house; host or cells: E. coli BL-21
Experimental: To measure the activity of obtained by us FTO protein, Chemiluminescent Assay Kit was used (BPS Bioscience). As a substrate, we used N^6meA modification on RNA. The reactions were carried out according to the manufacturer’s protocol. Chemiluminescence was measured using the plate reader Synergy HT (Bio Tek) with 1 sec of integration time and 100 ms of delay after plate movement.

ALKBH3 [5] = target: T2, ALKBH3 (Homo sapiens, UniProt Q96Q83); test: Thermal shift assay for ligand binding, ALKBH3 holo form; settings: ALKBH3 holo form (2OG, Mn2+), 5 µM compound; result in words
T2 construct: made in house
T2 sequence (Q96Q83 1-286): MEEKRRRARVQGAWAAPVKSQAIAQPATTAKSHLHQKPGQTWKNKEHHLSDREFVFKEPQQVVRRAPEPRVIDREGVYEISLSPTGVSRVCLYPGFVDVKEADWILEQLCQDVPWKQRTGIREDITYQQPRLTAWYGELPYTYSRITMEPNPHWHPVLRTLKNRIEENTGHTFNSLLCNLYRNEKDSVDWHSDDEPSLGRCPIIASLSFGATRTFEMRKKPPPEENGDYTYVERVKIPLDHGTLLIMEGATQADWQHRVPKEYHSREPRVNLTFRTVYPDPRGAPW
Experimental: (§4) We tested the affinity of our newly synthesized anthraquinones, 7-chloroemodin and 5,7-dichloroemodin, (Fig. S13) for ALKBH3 and FTO and assessed their effect on the enzymatic activity of targeted proteins using the thermal shift assay (TSA). The thermodynamic parameters for thermal denaturation of both proteins were measured for their holo forms, in the presence of 2OG and Mn^2+, an analogue of Fe^2+.
(§5) The assay was developed previously to monitor ligand binding to AlkB[36]. Fluorescence experiments were performed using a Varian Cary Eclipse spectrofluorimeter. Emission was monitored at 345 nm (excitation at 280 nm) over a temperature range of 40-95 °C with heating rate of 1 °C/min. The protein samples were dissolved in HEPES buffer at pH 7.5 with 2 mM dithiotreitol (DTT) and 150 mM NaCl to a final concentration of 1.2 µM. The process of thermal unfolding was performed at a concentration of 5 µM of the tested compound, either in the presence or absence of cofactors (50 µM 2OG and 100 µM Mn(II)). The thermal unfolding of the holo form of the protein was always monitored and further used as the reference. All the calculations were performed using Origin 9.0 software, assuming the simplest model of two-state (Folded-Unfolded) transition.

FTO [6] = target: T1, FTO; test: Thermal shift assay for ligand binding, FTO holo form; settings: FTO holo form (2OG, Mn2+), 5 µM compound; holo form alone 52.8 ± 0.6 °C
Experimental: as §4, §5

BICR18 cells = test: Alamar Blue viability assay, BICR18; format: cell-based, human; settings: 48 h of treatment
Experimental: (§6) Alamar Blue (Invitrogen) viability assay was performed according to manufacturer’s protocol: after 4 h incubation, emission at 590 nm was measured with excitation at 560 nm using a scanning multiwall multimode spectrophotometer (DTX 880, Beckman Coulter). The experiment was carried out at least three times, with three replicates for each inhibitor concentration. […] All the calculations were done using Origin 9.0 software.

EcAlkB = target: T3, EcAlkB (Escherichia coli, UniProt P05050); test: In vitro inhibition assay of demethylation activity (HPLC), AlkB; format: biochemical
T3 construct: made in house
Experimental: (§7) For EcAlkB, ALKBH3, and FTO, the inhibitory effect was further quantified by measuring inhibition of demethylation activity in vitro (Fig. 6D). […]. The reactions were carried out for 30 min at 37 °C in 20 µl of 50 mM Tris-HCl pH 7.5 with 1 mM DTT, 100 µM Fe(NH4)2(SO4)2, 50 µM 2OG, and 100 nM of AlkB or ALKBH3, 25 µM of substrate, and different concentrations of indicated inhibitors. […]. Modified and unmodified (repaired) products were separated and analyzed on Knauer HPLC system with C18 column (Waters NovaPak). The mobile phase binding buffer (20 mM TEAA) and elution buffer (acetonitrile) were mixed and flown at a rate of 1 ml/min. The detection wavelength was 260 nm.

HeLa cells [7] = test: Alamar Blue viability assay, HeLa; format: cell-based, human; settings: 48 h of treatment
Experimental: as §6

HEK293 cells = test: Alamar Blue viability assay, HEK293; format: cell-based, human; settings: 48 h of treatment
Experimental: as §6

ALKBH3 [8] = target: T2, ALKBH3; test: In vitro inhibition assay of demethylation activity (HPLC), ALKBH3; format: biochemical
Experimental: as §7

HeLa cells [9] = tested on: HeLa cells; set-up: method as in ref 32 (Varela-Ramirez and co-workers 2011); settings: ref 32 (Varela-Ramirez and co-workers 2011); cited from earlier work
EUFA30 cells [10] = test: Flow cytometry Annexin V-FITC / propidium iodide, EUFA30; format: cell-based, human; settings: EUFA30, 500 μM, 48 h
Experimental: as §2, §3

ALKBH3 [11] = tested on: ALKBH3; set-up: method as in ref 14 (Li and co-workers 2016); settings: ref 14 (Li and co-workers 2016); read-out: IC50 against ALKBH3; cited from earlier work
U87 cells [12] = tested on: U87 cells; set-up: method as in ref 14 (Li and co-workers 2016); settings: ref 14 (Li and co-workers 2016); cited from earlier work
[13] = EcAlkB 100 nM, 3meC on TT(3meC)TT pentamer, 30 min 37 °C, read-out: IC50 (Enzyme: EcAlkB 100nM; Substrate: 3meC)
[14] = ALKBH3 100 nM, 3meC on TT(3meC)TT pentamer, 30 min 37 °C, read-out: IC50 (Enzyme: ALKBH3 100nM; Substrate: 3meC)

T3 sequence (P05050 whole entry): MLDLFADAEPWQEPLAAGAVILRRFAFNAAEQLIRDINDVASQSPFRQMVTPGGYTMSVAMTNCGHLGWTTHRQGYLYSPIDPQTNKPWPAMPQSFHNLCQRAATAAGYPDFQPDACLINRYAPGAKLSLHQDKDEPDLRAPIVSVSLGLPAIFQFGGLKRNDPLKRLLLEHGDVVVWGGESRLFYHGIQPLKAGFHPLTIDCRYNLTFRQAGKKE
T1 sequence (Q9C0B1 whole entry): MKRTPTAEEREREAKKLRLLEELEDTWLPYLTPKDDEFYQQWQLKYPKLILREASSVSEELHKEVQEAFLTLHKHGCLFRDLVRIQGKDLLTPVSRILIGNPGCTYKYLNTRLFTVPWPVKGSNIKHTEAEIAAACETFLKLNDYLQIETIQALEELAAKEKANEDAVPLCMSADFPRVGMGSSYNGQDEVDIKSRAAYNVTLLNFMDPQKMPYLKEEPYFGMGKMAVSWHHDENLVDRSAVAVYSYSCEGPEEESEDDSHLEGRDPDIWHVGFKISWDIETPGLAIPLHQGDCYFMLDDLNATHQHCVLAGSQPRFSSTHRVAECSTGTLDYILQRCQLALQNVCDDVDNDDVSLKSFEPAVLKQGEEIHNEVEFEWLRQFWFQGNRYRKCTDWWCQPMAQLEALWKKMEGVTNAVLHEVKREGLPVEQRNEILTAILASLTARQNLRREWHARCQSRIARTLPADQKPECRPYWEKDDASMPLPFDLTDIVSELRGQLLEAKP

Compound: Cc1c(Cl)c(O)c2c(c1Cl)C(=O)c1cc(O)cc(O)c1C2=O [5,7-Dichloroemodin]
- IC50 (U87 cells [1]): 158 µM
- IC50 (EUFA30 cells [2]): 102 µM
- number of necrotic HeLa cells (HeLa cells [3]; 25 μM): 69.2%
- number of necrotic HeLa cells (HeLa cells [3]; 100 μM): 83.1%
- IC50 (FTO [4]): 42.1 ± 6.5 µM
- binding to ALKBH3 judged by increase of melting temperature (ALKBH3 [5]): slightly more weakly
- melting temperature of FTO-ligand complex (FTO [6]): 67.4 ± 0.1 °C
- IC50 (BICR18 cells): 39.8 µM
- IC50 (EcAlkB; [13]): 16.4 µM
- IC50 (HeLa cells [7]): 10.6 µM
- IC50 (HEK293 cells): 87.3 µM
- IC50 (ALKBH3 [8]; [14]): 176000 ± 6000 nM

Compound: Cc1cc2c(c(O)c1Cl)C(=O)c1c(O)cc(O)cc1C2=O [7-Chloroemodin]
- IC50 (U87 cells [1]): 120 µM
- IC50 (EUFA30 cells [2]): 163 µM
- number of necrotic HeLa cells (HeLa cells [3]; 25 μM): 18.8%
- number of necrotic HeLa cells (HeLa cells [3]; 100 μM): 37.6%
- IC50 (FTO [4]): 28.1 µM
- melting temperature of FTO-ligand complex (FTO [6]): 71.5 ± 0.2 °C
- IC50 (BICR18 cells): 99.5 µM
- IC50 (EcAlkB; [13]): 19.8 µM
- IC50 (HeLa cells [7]): 33.8 µM
- IC50 (HEK293 cells): 180 µM
- IC50 (ALKBH3 [8]; [14]): 116000 ± 7000 nM

Compound: O=C1c2cccc(O)c2C(=O)c2c(O)cc(CO)cc21 [Aloe-Emodin]
- cytotoxicity against U87 (U87 cells [1]): not cytotoxic
- IC50 (U87 cells [1]; Homo sapiens, U-87 MG): > 1000 µM
- IC50 (EUFA30 cells [2]; Homo sapiens): 380 µM
- IC50 (FTO [4]): 52 ± 12.6 µM
- binding to ALKBH3 judged by increase of melting temperature (ALKBH3 [5]): slightly more weakly
- IC50 (BICR18 cells; Homo sapiens): 57.5 µM
- IC50 (EcAlkB): 230 ± 100 µM
- IC50 (HeLa cells [7]; Homo sapiens, HeLa): 26 µM
- cytotoxicity against HEK293 (HEK293 cells): not cytotoxic
- IC50 (HEK293 cells; Homo sapiens, HEK293): > 1000 µM
- IC50 (ALKBH3 [8]; [14]): 8800 nM

Compound: Cc1c(C(=O)O)c(O)cc2c1C(=O)c1c(O)c([C@@H]3O[C@H](CO)[C@@H](O)[C@H](O)[C@H]3O)c(O)c(O)c1C2=O [Carminic Acid, Carminic acid]
- IC50 (U87 cells [1]; Homo sapiens, U-87 MG): 258 µM
- IC50 (EUFA30 cells [2]; Homo sapiens): 311 µM
- IC50 (FTO [4]): 25.3 ± 2.2 µM
- IC50 (BICR18 cells; Homo sapiens): 305 µM
- IC50 (EcAlkB; [13]): 170 ± 70 µM
- IC50 (HeLa cells [7]; Homo sapiens, HeLa): 387 µM
- IC50 (HEK293 cells; Homo sapiens, HEK293): 219 µM
- IC50 (ALKBH3 [8]; [14]): 111000 ± 7000 nM

Compound: [CH3][Sn]([Cl])([c]1ccccc1)[c]1ccccc1 [DPMT, diphenylmethyltin chloride]
- necrosis on HeLa cells (HeLa cells [9]): more than 40 % of cells

Compound: Cc1cc(O)c2c(c1)C(=O)c1cc(O)cc(O)c1C2=O [Emodin]
- IC50 (U87 cells [1]; Homo sapiens, U-87 MG): 42.7 µM
- IC50 (EUFA30 cells [2]; Homo sapiens): 138 µM
- IC50 (FTO [4]): 49.4 ± 19 µM
- binding to ALKBH3 judged by increase of melting temperature (ALKBH3 [5]): slightly more weakly
- IC50 (BICR18 cells; Homo sapiens): 81.1 µM
- IC50 (EcAlkB): 520 ± 100 µM
- IC50 (HeLa cells [7]; Homo sapiens, HeLa): 110 µM
- IC50 (ALKBH3 [8]; [14]): 540000 ± 160000 nM

Compound: O=C(O)c1cc(O)c2c(c1)C(=O)c1cccc(O)c1C2=O [Rhein]
- IC50 (U87 cells [1]; Homo sapiens, U-87 MG): > 1000 µM
- IC50 (EUFA30 cells [2]; Homo sapiens): 423 µM
- binding to ALKBH3 judged by increase of melting temperature (ALKBH3 [5]): strongest ligand
- IC50 (BICR18 cells; Homo sapiens): 89.4 µM
- IC50 (EcAlkB): 20.5 µM
- increase of early apoptosis stage compared to untreated control (EUFA30 cells [10]): approximately 2 fold
- increase of late apoptosis compared to untreated control (EUFA30 cells [10]): 15 fold
- increase of necrosis compared to untreated control (EUFA30 cells [10]): 11 fold
- IC50 (HeLa cells [7]; Homo sapiens, HeLa): 126 µM
- IC50 (HEK293 cells; Homo sapiens, HEK293): 157 µM
- IC50 (ALKBH3 [8]; as printed in text in nM, 3meC substrate, read-out: IC50 against ALKBH3): 40 nM
- IC50 (ALKBH3 [11]): 5.3 µM
- cytotoxic effect against U87 cells (U87 cells [12]): did not found any cytotoxic effect
